System: skin
Assay: Affymetrix microarray of skin, DBP-4 hr and analogs vs. untreated; gene selection by log-2 fold change, Wilcoxon, Kendall tau (Tables 8, 9)
Type: in vivo, mouse
Details: for Kendall: Kendall tau coefficient
[1] = DBP-4 hr vs. untreated, rank-sum p-value
[2] = Kendall tau, expression vs. output

CCCCOC(=O)c1ccccc1C(=O)OCCCC [DBP, dibutylphthalate]
No: Il1rl1 NM_001025602_at Wilcoxon [1] | Inpp5a NM_001127363_at Wilcoxon [1] | Inpp5d NM_001110192_at Wilcoxon [1] | Inpp5d NM_001110193_at Wilcoxon [1] | Klhdc5 NM_001081237_at Wilcoxon [1] | Mfhas1 NM_001081279_at Wilcoxon [1] | Mfsd4 NM_001114662_at Wilcoxon [1] | Mrpl44 NM_001081210_at Wilcoxon [1] | Ncbp1 NM_001033201_at Wilcoxon [1] | Nolc1 NM_001039351_at Wilcoxon [1] | Nolc1 NM_001039352_at Wilcoxon [1] | Nolc1 NM_001039353_at Wilcoxon [1] | Ogfrl1 NM_001081079_at Wilcoxon [1] | Oxr1 NM_001130163_at Wilcoxon [1] | Oxr1 NM_001130164_at Wilcoxon [1] | Oxr1 NM_001130165_at Wilcoxon [1] | Oxr1 NM_001130166_at Wilcoxon [1] | Pigyl NM_001082532_at Wilcoxon [1] | Pparg NM_001127330_at Wilcoxon [1] | Ppih NM_001110129_at Wilcoxon [1] | Rffl NM_001007465_at Wilcoxon [1] | Slc39a14 NM_001135151_at Wilcoxon [1] | Tnfrsf9 NM_001077508_at Wilcoxon [1] | Tnfrsf9 NM_001077509_at Wilcoxon [1] | Trp63 NM_001127259_at Wilcoxon [1] | Trp63 NM_001127260_at Wilcoxon [1] | Trp63 NM_001127262_at Wilcoxon [1] | Trp63 NM_001127264_at Wilcoxon [1] | Wbp1 NM_001083922_at Wilcoxon [1] | Wbp1 NM_001083923_at Wilcoxon [1] | Zfp68 NM_001044747_at Wilcoxon [1] | Zfp187 NM_001013786_at Wilcoxon [1] | Zfp518b NM_001081144_at Wilcoxon [1] | Zfp943 NM_001025373_at Wilcoxon [1] | Kendall (Egr1 NM_007913_at) | Kendall (Ehf NM_007914_at) | Kendall (Ereg NM_007950_at) | Wilcoxon (Fgfbp1 NM_008009_at, DBP-4 hr vs. untreated) | Kendall (Fgfbp1 NM_008009_at) | Kendall (Gch1 NM_008102_at) | Kendall (Gjb2 NM_008125_at) | Kendall (Gpr65 NM_008152_at) | 1110032A04Rik NM_133675_at Kendall [2] | 2610528A11Rik XR_105647_at Kendall [2] | 1500015010Rik NM_024283_at Kendall [2] | 3110079015Rik NM_028473_at Kendall [2] | A2m NM_175628_at Kendall [2] | AY026312 NM_133359_at Kendall [2] | Actn2 NM_033268_at Kendall [2] | Akr1c14 NM_134072_at Kendall [2] | Aox4 NM_023631_at Kendall [2] | Asb5 NM_029569_at Kendall [2] | Ccl8 NM_021443_at Kendall [2] | Ccl24 NM_019577_at Kendall [2] | Cd209d NM_130904_at Kendall [2] | Ckmt2 NM_198415_at Kendall [2] | Cldn8 NM_018778_at Kendall [2] | Clec4n NM_020001_at Kendall [2] | Cmya5 NM_023821_at Kendall [2] | Comp NM_016685_at Kendall [2] | Corin NM_016869_at Kendall [2] | Crispld1 NM_031402_at Kendall [2] | Cxcl10 NM_021274_at Kendall [2] | Cxcr6 NM_030712_at Kendall [2] | Dbp NM_016974_at Kendall [2] | Ear5 NM_019398_at Kendall [2] | Gm10228 XM_001474297_at Kendall [2] | Gm10228 XM_003086004_at Kendall [2] | Gm10229 XM_003086003_at Kendall [2] | Gsdmc NM_031378_at Kendall [2] | H19 NR_001592_at Kendall [2] | Krt33a NM_027983_at Kendall [2] | Krt34 NM_027563_at Kendall [2] | Krtap1-5 NM_027157_at Kendall [2] | Krtap3-1 NM_023511_at Kendall [2] | Krtap3-3 NM_025524_at Kendall [2] | Krtap4-2 NM_026807_at Kendall [2] | Krtap5-2 NM_027844_at Kendall [2] | Krtap9-3 NM_029351_at Kendall [2] | Krtap13-1 NM_183189_at Kendall [2] | Krtap16-1 NM_130870_at Kendall [2] | Krtap16-5 NM_130857_at Kendall [2] | Krtap16-7 NM_028621_at Kendall [2] | Krtap16-8 NM_130856_at Kendall [2] | Krtap16-9 NM_130876_at Kendall [2] | Krtap16-10 NM_183296_at Kendall [2] | Krtap28-13 XM_896507_at Kendall [2] | Krtap28-13 XM_919110_at Kendall [2] | LOC100503254 XM_003085741_at Kendall [2] | Lmod2 NM_053098_at Kendall [2] | Lyz2 NM_017372_at Kendall [2] | Mia1 NM_019394_at Kendall [2] | Ms4a6d NM_026835_at Kendall [2] | Mylpf NM_016754_at Kendall [2] | Myoz2 NM_021503_at Kendall [2] | Nrap NM_198059_at Kendall [2] | Nusap1 NM_133851_at Kendall [2] | Olr1 NM_138648_at Kendall [2]
Yes: Gm10229 XM_003086003_at Wilcoxon [1] | Gsdmc NM_031378_at Wilcoxon [1] | H19 NR_001592_at Wilcoxon [1] | Krt33a NM_027983_at Wilcoxon [1] | Krt34 NM_027563_at Wilcoxon [1] | Krtap1-5 NM_027157_at Wilcoxon [1] | Krtap3-1 NM_023511_at Wilcoxon [1] | Krtap3-3 NM_025524_at Wilcoxon [1] | Krtap4-2 NM_026807_at Wilcoxon [1] | Krtap5-2 NM_027844_at Wilcoxon [1] | Krtap9-3 NM_029351_at Wilcoxon [1] | Krtap13-1 NM_183189_at Wilcoxon [1] | Krtap16-1 NM_130870_at Wilcoxon [1] | Krtap16-5 NM_130857_at Wilcoxon [1] | Krtap16-7 NM_028621_at Wilcoxon [1] | Krtap16-8 NM_130856_at Wilcoxon [1] | Krtap16-9 NM_130876_at Wilcoxon [1] | Krtap16-10 NM_183296_at Wilcoxon [1] | Krtap28-13 XM_896507_at Wilcoxon [1] | Krtap28-13 XM_919110_at Wilcoxon [1] | LOC100503254 XM_003085741_at Wilcoxon [1] | Lmod2 NM_053098_at Wilcoxon [1] | Lyz2 NM_017372_at Wilcoxon [1] | Mia1 NM_019394_at Wilcoxon [1] | Ms4a6d NM_026835_at Wilcoxon [1] | Mylpf NM_016754_at Wilcoxon [1] | Myoz2 NM_021503_at Wilcoxon [1] | Nrap NM_198059_at Wilcoxon [1] | Nusap1 NM_133851_at Wilcoxon [1] | Olr1 NM_138648_at Wilcoxon [1] | Pgam2 NM_018870_at Wilcoxon [1] | Prg4 NM_021400_at Wilcoxon [1] | Retnla NM_020509_at Wilcoxon [1] | Rn18s NR_003278_at Wilcoxon [1] | Rpl3l NM_025425_at Wilcoxon [1] | Sln NM_025540_at Wilcoxon [1] | Smpx NM_025357_at Wilcoxon [1] | Tnni1 NM_021467_at Wilcoxon [1] | Trdn NM_029726_at Wilcoxon [1] | Trf NM_133977_at Wilcoxon [1] | Ttn NM_028004_at Wilcoxon [1] | Wfdc2 NM_026323_at Wilcoxon [1] | Wilcoxon (Egr1 NM_007913_at, DBP-4 hr vs. untreated) | Wilcoxon (Ehf NM_007914_at, DBP-4 hr vs. untreated) | Wilcoxon (Ereg NM_007950_at, DBP-4 hr vs. untreated) | Wilcoxon (Gch1 NM_008102_at, DBP-4 hr vs. untreated) | Wilcoxon (Gjb2 NM_008125_at, DBP-4 hr vs. untreated) | Wilcoxon (Gpr65 NM_008152_at, DBP-4 hr vs. untreated) | 2510002D24Rik NM_001033164_at Kendall [2] | 2510009E07Rik NM_001001881_at Kendall [2] | Aldh7a1 NM_001127338_at Kendall [2] | Atp2a2 NM_001110140_at Kendall [2] | Atp13a3 NM_001128094_at Kendall [2] | Atp13a3 NM_001128096_at Kendall [2] | Bcr NM_001081412_at Kendall [2] | Camk2g NM_001039138_at Kendall [2] | Camk2g NM_001039139_at Kendall [2] | Cyth1 NM_001112699_at Kendall [2] | Cyth1 NM_001112700_at Kendall [2] | Deptor NM_001037937_at Kendall [2] | Dlgap4 NM_001042487_at Kendall [2] | Dlgap4 NM_001042488_at Kendall [2] | Fam134b NM_001034851_at Kendall [2] | Gcdh NM_001044744_at Kendall [2] | Il1rl1 NM_001025602_at Kendall [2] | Inpp5a NM_001127363_at Kendall [2] | Inpp5d NM_001110192_at Kendall [2] | Inpp5d NM_001110193_at Kendall [2] | Klhdc5 NM_001081237_at Kendall [2] | Mfhas1 NM_001081279_at Kendall [2] | Mfsd4 NM_001114662_at Kendall [2] | Mrpl44 NM_001081210_at Kendall [2] | Ncbp1 NM_001033201_at Kendall [2] | Nolc1 NM_001039351_at Kendall [2] | Nolc1 NM_001039352_at Kendall [2] | Nolc1 NM_001039353_at Kendall [2] | Ogfrl1 NM_001081079_at Kendall [2] | Oxr1 NM_001130163_at Kendall [2] | Oxr1 NM_001130164_at Kendall [2] | Oxr1 NM_001130165_at Kendall [2]
